Experiments:
TBK1 = biological target: T1, TBK1 (Homo sapiens, UniProt Q9UHD2); assay: ADP-Glo Kinase Assay, inhibition activity on TBK1; type: biochemical
T1 construct: purchased Promega (Invitrogen is also named in the same bracket) V4158; PR8031B; V3991 (not assigned to the two kinases)
T1 sequence (Q9UHD2 1-729): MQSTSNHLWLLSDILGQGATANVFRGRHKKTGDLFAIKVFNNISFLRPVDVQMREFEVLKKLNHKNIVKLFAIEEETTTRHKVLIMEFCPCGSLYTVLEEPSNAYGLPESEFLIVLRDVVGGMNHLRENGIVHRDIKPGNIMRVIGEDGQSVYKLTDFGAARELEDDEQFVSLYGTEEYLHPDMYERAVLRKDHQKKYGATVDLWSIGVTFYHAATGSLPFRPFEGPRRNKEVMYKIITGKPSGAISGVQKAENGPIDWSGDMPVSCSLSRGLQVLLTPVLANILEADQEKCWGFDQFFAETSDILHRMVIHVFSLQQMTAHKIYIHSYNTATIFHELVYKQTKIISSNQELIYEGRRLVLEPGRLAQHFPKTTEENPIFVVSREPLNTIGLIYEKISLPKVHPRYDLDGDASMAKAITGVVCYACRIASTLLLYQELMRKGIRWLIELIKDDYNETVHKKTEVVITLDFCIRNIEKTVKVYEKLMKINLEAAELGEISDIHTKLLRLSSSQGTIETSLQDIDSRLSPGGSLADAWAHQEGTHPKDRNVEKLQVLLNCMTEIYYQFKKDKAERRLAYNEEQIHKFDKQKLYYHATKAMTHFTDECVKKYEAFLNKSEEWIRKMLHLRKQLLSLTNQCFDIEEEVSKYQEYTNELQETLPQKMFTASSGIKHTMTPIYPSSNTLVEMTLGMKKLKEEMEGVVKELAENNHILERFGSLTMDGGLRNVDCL
Outline: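 In 40 mM Tris pH 7.5 with 20 mM MgCl2 and 0.1 mg/mL BSA, each enzyme (IKKε or TBK1 kinase system) was run according to the manufacturer's protocol. ADP formed was detected by ADP-Glo luminescence.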

IKKε = biological target: T2, IKKε (Homo sapiens, UniProt Q14164); assay: ADP-Glo Kinase Assay, inhibition activity on IKKε; type: biochemical
T2 construct: purchased Promega and/or Invitrogen V4158; PR8031B; V3991 (not assigned to the two kinases)
T2 sequence (Q14164 1-716): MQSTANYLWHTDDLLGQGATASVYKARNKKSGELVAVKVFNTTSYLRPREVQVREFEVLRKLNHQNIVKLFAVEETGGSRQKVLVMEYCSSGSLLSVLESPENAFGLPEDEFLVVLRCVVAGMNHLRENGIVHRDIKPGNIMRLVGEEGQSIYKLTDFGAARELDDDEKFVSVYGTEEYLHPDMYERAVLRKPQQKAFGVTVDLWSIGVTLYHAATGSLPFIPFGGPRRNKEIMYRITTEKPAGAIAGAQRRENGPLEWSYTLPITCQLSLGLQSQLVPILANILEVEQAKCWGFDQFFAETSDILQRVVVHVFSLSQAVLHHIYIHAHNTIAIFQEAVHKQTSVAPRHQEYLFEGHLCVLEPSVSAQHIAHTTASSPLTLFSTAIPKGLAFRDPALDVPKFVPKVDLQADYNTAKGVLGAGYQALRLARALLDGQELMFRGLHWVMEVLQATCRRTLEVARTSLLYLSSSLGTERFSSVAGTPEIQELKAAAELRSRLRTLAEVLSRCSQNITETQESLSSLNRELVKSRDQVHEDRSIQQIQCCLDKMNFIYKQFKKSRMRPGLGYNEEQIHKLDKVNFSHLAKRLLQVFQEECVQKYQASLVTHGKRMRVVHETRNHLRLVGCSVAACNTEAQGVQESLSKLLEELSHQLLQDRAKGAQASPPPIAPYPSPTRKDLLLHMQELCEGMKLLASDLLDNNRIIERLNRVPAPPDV
Experimental: Inhibition activities on IKKϵ and TBK1 were evaluated using the compounds of Examples 1 to 250.
The inhibition activities on IKKϵ and TBK1 were measured by a luminometer, IKKϵ/TBK1 Kinase Enzyme System (Promega, Ca# V4158; Invitrogen, PR8031B, Promega, Ca# V3991) and ADP-Glo Kinase Assay using ADP-Glo™ Kinase Analysis Kit (Promega, Ca# V9101) and a kinase reaction buffer [40 mM Tris(pH 7.5), 20 mM MgCl2, 0.1 mg/mL BSA] in accordance with the manufacturer's protocol.

SMILES | IC50 (TBK1) | IC50 (IKKε)
CC1CC(c2c[nH]c3ncc(-c4ccc(CN5CCN(C)CC5)s4)cc23)=CCN1C(=O)NC1CCCC1 (centres unmarked) [Example 103, N-cyclopentyl-6-methyl-4-(5-(5-((4-methylpiperazin-1-yl)methyl)thiophen-2-yl)-1H-pyrrolo[2,3-b]pyridin-3-yl)-5,6-dihydropyridine-1(2H)-carboxamide] | 58 nM | 150 nM
CC(C)NC(=O)N1CC=C(c2c[nH]c3ncc(-c4ccccc4)cc23)CC1 [Example 11, N-isopropyl-4-(5-phenyl-1H-pyrrolo[2,3-b]pyridin-3-yl)-5,6-dihydropyridine-1(2H)-carboxamide] | 24 nM | 8200 nM
CC1CC(c2c[nH]c3ncc(-c4ccc(CN5CCOCC5)s4)cc23)=CCN1C(=O)NC1CCCC1 (centres unmarked) [Example 104, N-cyclopentyl-6-methyl-4-(5-(5-(morpholinomethyl)thiophen-2-yl)-1H-pyrrolo[2,3-b]pyridin-3-yl)-5,6-dihydropyridine-1(2H)-carboxamide] | 110 nM | 190 nM
O=C(c1ccc(-c2cnc3[nH]cc(C4=CCN(C(=O)c5cccs5)CC4)c3c2)cc1)N1CCOCC1 [Example 209, (4-(5-(4-(morpholine-4-carbonyl)phenyl)-1H-pyrrolo[2,3-b]pyridin-3-yl)-5,6-dihydropyridin-1(2H)-yl)(thiophen-2-yl)methanone] | 7 nM | 140 nM
COc1ccc(-c2cnc3[nH]cc(C4=CCN(C(=O)NC(C)C)CC4)c3c2)cc1 [Example 12, N-isopropyl-4-(5-(4-methoxyphenyl)-1H-pyrrolo[2,3-b]pyridin-3-yl)-3,6-dihydropyridine-1(2H)-carboxamide] | 29 nM | 2200 nM
CS(=O)(=O)c1cccc(-c2cnc3[nH]cc(C4=CCN(C(=O)NC5CCCC5)CC4)c3c2)c1 [Example 52, N-cyclopentyl-4-(5-(3-(methylsulfonyl)phenyl)-1H-pyrrolo[2,3-b]pyridin-3-yl)-5,6-dihydropyridine-1(2H)-carboxamide] | 23 nM | 48 nM
CC(C)NC(=O)N1CC=C(c2c[nH]c3ncc(-c4ccc(CN5CCN(C)CC5)nc4)cc23)CC1 [Example 25, N-isopropyl-4-(5-(6-((4-methylpiperazin-1-yl)methyl)pyridin-3-yl)-1H-pyrrolo[2,3-b]pyridin-3-yl)-3,6-dihydropyridine-1(2H)-carboxamide] | 16 nM | 51 nM
O=C(c1cccs1)N1CC=C(c2c[nH]c3ncc(-c4ccc5[nH]ncc5c4)cc23)CC1 [Example 204, (4-(5-(1H-indazol-5-yl)-1H-pyrrolo[2,3-b]pyridin-3-yl)-5,6-dihydropyridin-1(2H)-yl)(thiophen-2-yl)methanone] | 57 nM | 280 nM
CCC1C=C(c2c[nH]c3ncc(-c4ccc(CN5CCN(C)CC5)s4)cc23)CCN1C(=O)NC(C)C (centres unmarked) [Example 111, 2-Ethyl-N-isopropyl-4-(5-(5-((4-methylpiperazin-1-yl)methyl)thiophen-2-yl)-1H-pyrrolo[2,3-b]pyridin-3-yl)-5,6-dihydropyridine-1(2H)-carboxamide] | 18 nM | 77 nM
COc1ccc(-c2cnc3[nH]cc(C4=CCN(C(=O)NC5CCCC5)CC4)c3c2)cc1F [Example 50, N-cyclopentyl-4-(5-(3-fluoro-4-methoxyphenyl)-1H-pyrrolo[2,3-b]pyridin-3-yl)-5,6-dihydropyridine-1(2H)-carboxamide] | 330 nM | 410 nM
CC(C)NC(=O)N1CC=C(c2c[nH]c3ncc(-c4ccc(CN5CCCC5)s4)cc23)CC1 [Example 28, N-isopropyl-4-(5-(5-(pyrrolidin-1-ylmethyl)thiophen-2-yl)-1H-pyrrolo[2,3-b]pyridin-3-yl)-5,6-dihydropyridine-1(2H)-carboxamide] | 18 nM | 58 nM
COc1ccc(-c2cnc3[nH]cc(C4CCN(C(=O)NC(C)C)C4)c3c2)cc1OC (centres unmarked) [Example 238, 3-(5-(3,4-dimethoxyphenyl)-1H-pyrrolo[2,3-b]pyridin-3-yl)-N-isopropylpyrrolidine-1-carboxamide] | 6230 nM | 6050 nM

Compounds with a lower IC50 (IKKε), results first:

IC50 (TBK1) | IC50 (IKKε) | SMILES
2.5 nM | 45 nM | COc1ccc(-c2cnc3[nH]cc(C4=CCN(C(=O)NC(C)C)CC4)c3c2)cc1OC [Example 18, 4-(5-(3,4-Dimethoxyphenyl)-1H-pyrrolo[2,3-b]pyridin-3-yl)-N-isopropyl-5,6-dihydropyridine-1(2H)-carboxamide]
5.6 nM | 35 nM | CC1C=C(c2c[nH]c3ncc(-c4ccc(CN5CCN(C)CC5)s4)cc23)CCN1C(=O)NC1CCC1 (centres unmarked) [Example 100, N-cyclobutyl-2-methyl-4-(5-(5-((4-methylpiperazin-1-yl)methyl)thiophen-2-yl)-1H-pyrrolo[2,3-b]pyridin-3-yl)-5,6-dihydropyridine-1(2H)-carboxamide]
320 nM | 28 nM | CN1CCN(Cc2ccc(-c3cnc4[nH]cc(C5=CCN(C(=O)NC6COC6)CC5)c4c3)s2)CC1 [Example 79, 4-(5-(5-((4-Methylpiperazin-1-yl)methyl)thiophen-2-yl)-1H-pyrrolo[2,3-b]pyridin-3-yl)-N-(oxetan-3-yl)-5,6-dihydropyridine-1(2H)-carboxamide]
15 nM | 22 nM | CC1C=C(c2c[nH]c3ncc(-c4ccc(C(=O)N5CCN(C)CC5)cc4)cc23)CCN1C(=O)NC1CCC1 (centres unmarked) [Example 98, N-cyclobutyl-2-methyl-4-(5-(4-(4-methylpiperazine-1-carbonyl)phenyl)-1H-pyrrolo[2,3-b]pyridin-3-yl)-5,6-dihydropyridine-1(2H)-carboxamide]
29 nM | 21 nM | CC(C)NC(=O)N1CC=C(c2c[nH]c3ncc(-c4ccc(OC5CCOCC5)cc4)cc23)CC1 [Example 38, N-isopropyl-4-(5-(4-((tetrahydro-2H-pyran-4-yl)oxy)phenyl)-1H-pyrrolo[2,3-b]pyridin-3-yl)-3,6-dihydropyridine-1(2H)-carboxamide]
8.2 nM | 10 nM | O=C(NC1CC1)N1CC=C(c2c[nH]c3ncc(-c4ccc(CN5CCOCC5)s4)cc23)CC1 [Example 48, N-cyclopropyl-4-(5-(5-(morpholinomethyl)thiophen-2-yl)-1H-pyrrolo[2,3-b]pyridin-3-yl)-5,6-dihydropyridine-1(2H)-carboxamide]
 | 9.3 nM | CC(C)NC(=O)N1CC=C(c2c[nH]c3ncc(-c4ccc(CN5CCOCC5)o4)cc23)CC1 [Example 36, N-isopropyl-4-(5-(5-(morpholinomethyl)furan-2-yl)-1H-pyrrolo[2,3-b]pyridin-3-yl)-5,6-dihydropyridine-1(2H)-carboxamide]
5.7 nM | 6.6 nM | CC(C)NC(=O)N1CC=C(c2c[nH]c3ncc(-c4ccc(CN5CCN(C6CC6)CC5)cc4)cc23)CC1 [Example 23, 4-(5-(4-((4-Cyclopropylpiperazin-1-yl)methyl)phenyl)-1H-pyrrolo[2,3-b]pyridin-3-yl)-N-isopropyl-3,6-dihydropyridine-1(2H)-carboxamide]
2.8 nM | 3.3 nM | CC(C)NC(=O)N1CCC(c2c[nH]c3ncc(-c4ccc(C(=O)N5CCN(C)CC5)cc4)cc23)=CC1C (centres unmarked) [Example 89, N-isopropyl-2-methyl-4-(5-(4-(4-methylpiperazine-1-carbonyl)phenyl)-1H-pyrrolo[2,3-b]pyridin-3-yl)-5,6-dihydropyridine-1(2H)-carboxamide]

— patent publication US10239873B2, “7-azaindole or 4,7-diazaindole derivatives as IKKϵ epsilon and TBK1 inhibitor and pharmaceutical composition comprising same” (GREEN CROSS CORPORATION, priority 2015, dated 2019)
